Assay results published in doi:10.1101/2024.08.19.608619, “Discovery of potent SARS-CoV-2 nsp3 macrodomain inhibitors uncovers lack of translation to cellular antiviral response” (bioRxiv, 2024).
In brackets after ≈: the same amount, converted by molar mass. Several values for one entry are separate records, joined by “and”; a condition that tells them apart may be missing. Equal values may be shown once. Read-outs that look alike come from different tables or passages of the source.

Experiments:
[1] = system: HeLa-ACE2 cells; settings: for perc_max_measured: highest measured response of the dose series; for perc_min_measured: lowest measured response of the dose series
[2] = LogD
[3] = target: T1, MSK2(h) (Homo sapiens, UniProt O75676); experiment: biochemical; set-up: In vitro kinase panel profiling, per cent remaining kinase activity at 10 uM; settings: atp_concentration=45, read-out: % of control remaining
T1 construct: gene RPS6KA4
T1 sequence (O75676 whole entry): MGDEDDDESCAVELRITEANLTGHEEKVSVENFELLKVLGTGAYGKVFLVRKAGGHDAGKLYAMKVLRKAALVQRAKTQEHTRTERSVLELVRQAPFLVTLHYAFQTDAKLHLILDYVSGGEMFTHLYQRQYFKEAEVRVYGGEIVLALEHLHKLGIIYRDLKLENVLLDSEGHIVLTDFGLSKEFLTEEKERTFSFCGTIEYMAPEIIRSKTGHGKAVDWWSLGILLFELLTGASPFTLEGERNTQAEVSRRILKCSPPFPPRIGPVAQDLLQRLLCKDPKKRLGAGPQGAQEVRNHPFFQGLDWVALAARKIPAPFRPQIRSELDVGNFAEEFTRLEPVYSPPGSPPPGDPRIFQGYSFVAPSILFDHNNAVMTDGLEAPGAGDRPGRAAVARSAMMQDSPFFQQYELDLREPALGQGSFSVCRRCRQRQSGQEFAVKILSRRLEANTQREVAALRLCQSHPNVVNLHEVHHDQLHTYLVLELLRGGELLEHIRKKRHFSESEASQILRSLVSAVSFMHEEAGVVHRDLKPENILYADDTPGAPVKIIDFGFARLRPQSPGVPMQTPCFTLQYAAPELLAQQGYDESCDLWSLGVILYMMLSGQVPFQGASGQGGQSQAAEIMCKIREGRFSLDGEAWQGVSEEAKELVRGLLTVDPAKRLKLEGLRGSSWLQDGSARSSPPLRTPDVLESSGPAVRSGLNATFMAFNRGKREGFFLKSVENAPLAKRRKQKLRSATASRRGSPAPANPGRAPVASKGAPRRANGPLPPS
Source text: (§1) We derisk potential for off-target activity by profiling the compound in a CEREP panel, a standard secondary pharmacology assessment, as well as a kinase panel to derisk a potential hinge-binding motif in our leads, and a PARP panel to derisk activity against human […]. Reassuringly, the compounds are selective, with the only off-targets being moderate human CHRM2 and KOR receptors activity associated with ASAP-0011198.

[4] = target: T2, PKA(h) (Homo sapiens, UniProt P17612); experiment: biochemical; set-up: In vitro kinase panel profiling, per cent remaining kinase activity at 10 uM; settings: atp_concentration=10, read-out: % of control remaining
T2 construct: gene PRKACA
Source text: as §1

[5] = In vitro kinetic solubility
[6] = In vitro dog hepatocyte stability; format: in vitro ADME
Source text: Supplement media-1.zip/Hepatocyte_Stability.csv, table | column: clint; t_half

[7] = target: T3, A2A (h) (Homo sapiens, UniProt P29274); experiment: In vitro CEREP profiling, A2A (h) (agonist radioligand); format: binding; settings: test compound 10 uM, read-out: perc_inhibition (% inhibition of the binding of a ligand specific for each target)
T3 construct: purchased Eurofins Cerep (SafetyScreen44), recognised from the panel format
T3 sequence (P29274 whole entry): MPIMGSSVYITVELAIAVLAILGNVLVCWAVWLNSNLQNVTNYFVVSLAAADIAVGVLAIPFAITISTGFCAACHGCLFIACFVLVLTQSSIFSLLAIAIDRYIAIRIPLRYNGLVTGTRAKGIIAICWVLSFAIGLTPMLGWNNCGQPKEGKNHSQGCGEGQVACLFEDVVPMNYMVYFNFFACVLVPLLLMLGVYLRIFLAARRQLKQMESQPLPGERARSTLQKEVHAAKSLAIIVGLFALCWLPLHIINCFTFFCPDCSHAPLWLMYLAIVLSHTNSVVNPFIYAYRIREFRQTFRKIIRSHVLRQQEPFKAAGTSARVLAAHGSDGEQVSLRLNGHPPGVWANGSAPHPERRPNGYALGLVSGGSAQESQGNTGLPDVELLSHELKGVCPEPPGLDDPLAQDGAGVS
Source text: (§2) Supplement media-1.zip/Safety_Panel_Profile.csv, table | column: perc_inhibition

[8] = target: T4, COX1(h) (Homo sapiens, UniProt P23219); experiment: In vitro CEREP profiling, COX1(h); format: biochemical; settings: test compound concentration 10 uM; Enzyme and Cell-based assays; read-out: perc_inhibition: % inhibition of control enzyme activity, COX1(h)
T4 construct: purchased Eurofins Cerep (SafetyScreen44), recognised from the panel format
Source text: as §2

[9] = target: T5, H2 (h) (Homo sapiens, UniProt P25021); experiment: In vitro CEREP profiling, H2 (h) (antagonist radioligand); format: binding; settings: test compound concentration 10 uM, read-out: perc_inhibition (% inhibition of the binding of a ligand specific for each target)
T5 construct: purchased Eurofins Cerep (SafetyScreen44), recognised from the panel format
T5 sequence (P25021 whole entry): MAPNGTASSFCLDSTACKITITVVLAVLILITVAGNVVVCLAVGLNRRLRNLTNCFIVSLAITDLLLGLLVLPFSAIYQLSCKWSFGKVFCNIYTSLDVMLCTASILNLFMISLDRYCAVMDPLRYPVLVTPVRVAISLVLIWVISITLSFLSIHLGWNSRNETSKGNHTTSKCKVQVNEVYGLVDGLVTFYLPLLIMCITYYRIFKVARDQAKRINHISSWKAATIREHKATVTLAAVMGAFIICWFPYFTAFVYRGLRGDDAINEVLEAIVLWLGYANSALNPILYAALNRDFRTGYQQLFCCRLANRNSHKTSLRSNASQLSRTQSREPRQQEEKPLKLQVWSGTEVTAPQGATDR
Source text: as §2

[10] = target: T6, 5-HT2B (h) (Homo sapiens, UniProt P41595); experiment: In vitro CEREP profiling, 5-HT2B (h) (agonist radioligand); format: binding; settings: test compound concentration 10 uM, read-out: perc_inhibition, % inhibition of the binding of a ligand specific for each target
T6 construct: purchased Eurofins Cerep (SafetyScreen44), recognised from the panel format
T6 sequence (P41595 whole entry): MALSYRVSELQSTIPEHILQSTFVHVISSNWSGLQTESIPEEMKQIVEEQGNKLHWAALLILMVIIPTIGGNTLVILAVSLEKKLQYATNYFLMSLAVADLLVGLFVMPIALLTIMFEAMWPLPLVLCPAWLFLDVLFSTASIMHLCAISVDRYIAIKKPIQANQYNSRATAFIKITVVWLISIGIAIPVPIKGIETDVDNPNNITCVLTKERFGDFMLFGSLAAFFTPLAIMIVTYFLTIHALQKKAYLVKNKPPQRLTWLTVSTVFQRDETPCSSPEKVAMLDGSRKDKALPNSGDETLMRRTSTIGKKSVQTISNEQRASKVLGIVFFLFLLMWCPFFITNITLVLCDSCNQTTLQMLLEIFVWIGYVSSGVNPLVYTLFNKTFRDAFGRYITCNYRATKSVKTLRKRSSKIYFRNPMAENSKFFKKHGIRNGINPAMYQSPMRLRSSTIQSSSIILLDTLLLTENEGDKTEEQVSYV
Source text: as §2

[11] = target: T7, 5-HT3 (h) (Homo sapiens, UniProt P46098); experiment: In vitro CEREP profiling, 5-HT3 (h) (antagonist radioligand); format: binding; settings: test compound concentration 10 uM, read-out: perc_inhibition, % inhibition of the binding of a ligand specific for each target
T7 construct: purchased Eurofins Cerep (SafetyScreen44), recognised from the panel format
T7 sequence (P46098 24-478): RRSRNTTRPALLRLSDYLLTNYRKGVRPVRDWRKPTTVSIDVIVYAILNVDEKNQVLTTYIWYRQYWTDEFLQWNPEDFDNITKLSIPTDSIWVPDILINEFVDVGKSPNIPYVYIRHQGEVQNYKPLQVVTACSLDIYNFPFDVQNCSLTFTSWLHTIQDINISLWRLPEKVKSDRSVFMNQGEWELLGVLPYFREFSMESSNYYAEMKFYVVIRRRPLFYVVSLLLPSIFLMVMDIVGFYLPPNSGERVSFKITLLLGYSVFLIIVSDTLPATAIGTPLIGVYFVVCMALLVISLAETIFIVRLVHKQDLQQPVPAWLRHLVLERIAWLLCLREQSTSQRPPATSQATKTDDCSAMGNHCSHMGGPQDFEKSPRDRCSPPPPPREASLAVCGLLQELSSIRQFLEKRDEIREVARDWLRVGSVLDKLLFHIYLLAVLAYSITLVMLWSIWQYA
Source text: as §2

[12] = target: T8, beta2 (h) (Homo sapiens, UniProt P07550); experiment: In vitro CEREP profiling, beta2 (h) (antagonist radioligand); format: binding; settings: test compound 10 uM, read-out: perc_inhibition (% inhibition of the binding of a ligand specific for each target)
T8 construct: purchased Eurofins Cerep (SafetyScreen44), recognised from the panel format
T8 sequence (P07550 whole entry): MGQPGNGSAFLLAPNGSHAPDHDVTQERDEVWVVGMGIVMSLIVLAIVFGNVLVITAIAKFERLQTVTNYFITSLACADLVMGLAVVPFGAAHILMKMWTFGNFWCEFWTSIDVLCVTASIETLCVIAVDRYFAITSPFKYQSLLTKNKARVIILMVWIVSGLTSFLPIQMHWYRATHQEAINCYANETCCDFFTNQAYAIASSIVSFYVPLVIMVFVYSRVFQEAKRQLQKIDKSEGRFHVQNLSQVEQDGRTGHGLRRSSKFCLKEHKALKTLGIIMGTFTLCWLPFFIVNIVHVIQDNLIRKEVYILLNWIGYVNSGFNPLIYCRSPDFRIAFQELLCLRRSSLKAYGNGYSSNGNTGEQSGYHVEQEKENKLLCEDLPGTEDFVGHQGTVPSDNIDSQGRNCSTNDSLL
Source text: as §2

[13] = target: T9, M3 (h) (Homo sapiens, UniProt P20309); experiment: In vitro CEREP profiling, M3 (h) (antagonist radioligand); format: binding; settings: test compound concentration 10 uM, read-out: perc_inhibition (% inhibition of the binding of a ligand specific for each target)
T9 construct: purchased Eurofins Cerep (SafetyScreen44), recognised from the panel format
T9 sequence (P20309 whole entry): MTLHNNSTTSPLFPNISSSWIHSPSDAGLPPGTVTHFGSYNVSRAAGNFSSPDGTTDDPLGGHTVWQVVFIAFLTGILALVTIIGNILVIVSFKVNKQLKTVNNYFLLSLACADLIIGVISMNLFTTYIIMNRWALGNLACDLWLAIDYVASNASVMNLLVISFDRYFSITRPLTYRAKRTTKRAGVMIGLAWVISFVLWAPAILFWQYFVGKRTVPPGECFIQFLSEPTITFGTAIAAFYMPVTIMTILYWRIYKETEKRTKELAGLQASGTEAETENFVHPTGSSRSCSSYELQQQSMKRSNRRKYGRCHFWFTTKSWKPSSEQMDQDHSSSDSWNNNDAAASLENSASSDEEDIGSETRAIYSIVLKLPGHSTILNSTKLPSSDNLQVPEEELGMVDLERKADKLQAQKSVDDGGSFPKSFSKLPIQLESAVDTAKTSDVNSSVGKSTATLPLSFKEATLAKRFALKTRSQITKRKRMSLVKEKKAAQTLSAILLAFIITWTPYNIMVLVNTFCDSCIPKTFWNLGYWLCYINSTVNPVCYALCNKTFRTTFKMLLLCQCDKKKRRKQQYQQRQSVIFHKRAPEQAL
Source text: as §2

[14] = target: T10, CB1 (h) (Homo sapiens, UniProt P21554); experiment: In vitro CEREP profiling, CB1 (h) (agonist radioligand); format: binding; settings: test compound 10 uM, read-out: perc_inhibition (% inhibition of the binding of a ligand specific for each target)
T10 construct: purchased Eurofins Cerep (SafetyScreen44), recognised from the panel format
T10 sequence (P21554 whole entry): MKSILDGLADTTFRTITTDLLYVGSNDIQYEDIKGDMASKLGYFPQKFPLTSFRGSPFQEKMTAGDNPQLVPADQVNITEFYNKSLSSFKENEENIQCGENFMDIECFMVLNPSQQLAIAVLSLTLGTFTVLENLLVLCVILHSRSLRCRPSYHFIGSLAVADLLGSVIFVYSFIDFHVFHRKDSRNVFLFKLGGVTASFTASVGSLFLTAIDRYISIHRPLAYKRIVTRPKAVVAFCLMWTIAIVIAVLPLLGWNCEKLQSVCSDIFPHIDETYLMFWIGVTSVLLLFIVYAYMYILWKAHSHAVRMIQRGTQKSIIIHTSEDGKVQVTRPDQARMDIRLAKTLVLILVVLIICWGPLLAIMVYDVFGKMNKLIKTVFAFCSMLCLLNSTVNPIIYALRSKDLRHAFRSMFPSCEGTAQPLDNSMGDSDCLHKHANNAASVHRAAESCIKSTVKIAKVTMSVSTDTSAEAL
Source text: as §2

[15] = target: T11, CCK1 (CCKA) (h) (Homo sapiens, UniProt P32238); experiment: In vitro CEREP profiling, CCK1 (CCKA) (h) (agonist radioligand); format: binding; settings: test compound 10 uM, read-out: perc_inhibition (% inhibition of the binding of a ligand specific for each target)
T11 construct: purchased Eurofins Cerep (SafetyScreen44), recognised from the panel format
T11 sequence (P32238 1-428): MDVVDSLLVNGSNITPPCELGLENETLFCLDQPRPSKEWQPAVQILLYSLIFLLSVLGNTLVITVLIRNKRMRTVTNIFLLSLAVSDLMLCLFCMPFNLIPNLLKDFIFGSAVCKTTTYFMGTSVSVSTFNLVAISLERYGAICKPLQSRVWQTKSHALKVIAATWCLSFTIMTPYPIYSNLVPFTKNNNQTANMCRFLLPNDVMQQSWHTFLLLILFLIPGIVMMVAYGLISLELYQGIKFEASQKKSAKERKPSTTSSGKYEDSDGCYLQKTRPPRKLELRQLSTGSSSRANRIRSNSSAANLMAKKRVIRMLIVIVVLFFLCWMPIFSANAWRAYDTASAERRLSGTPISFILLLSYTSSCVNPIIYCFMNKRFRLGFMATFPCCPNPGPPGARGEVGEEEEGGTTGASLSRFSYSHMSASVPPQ
Source text: as §2

[16] = In vitro rat SD liver microsomal stability; format: in vitro ADME
Source text: Supplement media-1.zip/Hepatic_Microsomal_Stability.csv, table | column: clint; t_half

[17] = target: T12, D2S (h) (Homo sapiens, UniProt P14416); experiment: In vitro CEREP profiling, D2S (h) (agonist radioligand); format: binding; settings: test compound 10 uM, read-out: perc_inhibition (% inhibition of the binding of a ligand specific for each target)
T12 construct: purchased Eurofins Cerep (SafetyScreen44), recognised from the panel format
T12 sequence (P14416 1-414 isoform P14416-2): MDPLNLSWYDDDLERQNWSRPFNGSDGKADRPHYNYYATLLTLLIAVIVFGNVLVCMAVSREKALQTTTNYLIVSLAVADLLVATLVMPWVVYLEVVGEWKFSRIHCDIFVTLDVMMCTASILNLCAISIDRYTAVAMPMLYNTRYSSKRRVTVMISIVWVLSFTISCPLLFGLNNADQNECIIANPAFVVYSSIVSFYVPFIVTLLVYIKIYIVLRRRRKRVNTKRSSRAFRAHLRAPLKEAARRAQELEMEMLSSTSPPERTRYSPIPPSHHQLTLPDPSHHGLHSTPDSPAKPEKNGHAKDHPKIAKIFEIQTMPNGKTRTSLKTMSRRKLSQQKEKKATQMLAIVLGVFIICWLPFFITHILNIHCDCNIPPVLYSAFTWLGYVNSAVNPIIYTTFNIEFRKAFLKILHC
Source text: as §2

[18] = target: T13, 5-HT1B (h) (Homo sapiens, UniProt P28222); experiment: In vitro CEREP profiling, 5-HT1B (h) (antagonist radioligand); format: binding; settings: test compound concentration 10 uM, read-out: perc_inhibition (% inhibition of the binding of a ligand specific for each target)
T13 construct: purchased Eurofins Cerep (SafetyScreen44), recognised from the panel format
T13 sequence (P28222 whole entry): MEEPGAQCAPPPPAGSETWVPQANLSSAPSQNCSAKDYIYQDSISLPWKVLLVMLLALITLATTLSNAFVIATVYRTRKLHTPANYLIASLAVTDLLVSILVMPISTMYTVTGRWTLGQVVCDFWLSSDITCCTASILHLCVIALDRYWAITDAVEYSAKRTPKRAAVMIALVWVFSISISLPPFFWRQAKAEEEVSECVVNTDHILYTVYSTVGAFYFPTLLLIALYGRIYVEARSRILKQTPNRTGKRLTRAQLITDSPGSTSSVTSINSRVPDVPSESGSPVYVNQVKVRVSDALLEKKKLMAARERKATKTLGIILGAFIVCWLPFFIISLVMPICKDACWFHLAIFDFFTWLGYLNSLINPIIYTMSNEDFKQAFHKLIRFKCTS
Source text: as §2

[19] = target: T14, dopamine transporter (h) (Homo sapiens, UniProt Q01959); experiment: In vitro CEREP profiling, dopamine transporter (h) (antagonist radioligand); format: binding; settings: test compound concentration 10 uM, read-out: perc_inhibition, % inhibition of the binding of a ligand specific for each target
T14 construct: purchased Eurofins Cerep (SafetyScreen44), recognised from the panel format
T14 sequence (Q01959 whole entry): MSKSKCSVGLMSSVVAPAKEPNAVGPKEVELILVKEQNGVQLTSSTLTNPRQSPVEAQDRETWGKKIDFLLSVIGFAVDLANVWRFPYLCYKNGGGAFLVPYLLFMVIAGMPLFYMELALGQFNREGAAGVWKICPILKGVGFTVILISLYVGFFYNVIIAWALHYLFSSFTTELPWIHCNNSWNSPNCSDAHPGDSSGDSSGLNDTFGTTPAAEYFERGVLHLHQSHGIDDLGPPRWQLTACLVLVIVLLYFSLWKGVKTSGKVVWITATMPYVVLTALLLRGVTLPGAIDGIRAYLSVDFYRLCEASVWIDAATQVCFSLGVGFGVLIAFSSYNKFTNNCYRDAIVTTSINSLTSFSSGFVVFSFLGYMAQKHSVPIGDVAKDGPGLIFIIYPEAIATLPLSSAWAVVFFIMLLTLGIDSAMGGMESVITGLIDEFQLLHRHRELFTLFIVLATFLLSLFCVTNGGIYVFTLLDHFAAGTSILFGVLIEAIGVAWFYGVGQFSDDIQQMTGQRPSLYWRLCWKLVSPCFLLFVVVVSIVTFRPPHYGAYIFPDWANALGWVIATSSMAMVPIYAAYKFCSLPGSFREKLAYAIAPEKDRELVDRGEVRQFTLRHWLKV
Source text: as §2

[20] = protocol HeLa-ACE2 cytotoxicity
[21] = In vitro kinetic solubility, ph 7.4

Row | SMILES | cc10 [1, 20] [µM] | perc_max_measured [1, 20] | perc_min_measured [1, 20] | logd ([2]; pH 7.4, In vitro LogD) | solubility_mean [5, 21] | CC50 [1, 20] [µM] | inhibition at 10 µM [7] [%] | inhibition at 10 µM [8] [%] | inhibition at 10 µM [9] [%] | inhibition at 10 µM [10] [%] | inhibition at 10 µM [11] [%] | inhibition at 10 µM [12] [%] | inhibition at 10 µM [13] [%] | inhibition at 10 µM [14] [%] | inhibition at 10 µM [15] [%] | cc10 ([1]; HeLa-ACE2 cytotoxicity) [µM] | perc_max_measured ([1]; HeLa-ACE2 cytotoxicity) [%] | perc_min_measured ([1]; HeLa-ACE2 cytotoxicity) [%] | inhibition at 10 µM [17] [%] | inhibition at 10 µM [18] [%] | other results
1 | CC(C)C(Nc1ncnc2[nH]ccc12)c1ccc2c(c1)S(=O)(=O)CCC2 (stereo not shown) [ASAP-0008327] | > 50.0 | 104.85% | 98.585% |  |  |  |  |  |  |  |  |  |  |  |  |  |  |  |  |  | logd ([2]; pH 7.4, logd, pH 7.4, In vitro LogD): 2.5; remaining activity at 10 µM ([3]; batch_name=ASAP-0008327-001): 99%; remaining activity at 10 µM ([4]; batch_name=ASAP-0008327-001): 98%; solubility ([5]; pH 7.4, solubility_mean, In vitro kinetic solubility, ph 7.4): 385 µM (≈ 143 µg/mL)
2 | COc1ccc([C@@H](Cc2nnn[nH]2)NC(=O)c2ncnc3[nH]ccc23)cc1 [ASAP-0008340] |  |  |  | -0.1 | 395 µM (≈ 144 µg/mL) |  |  |  |  |  |  |  |  |  |  |  |  |  |  |  | remaining activity at 10 µM ([3]; batch_name=ASAP-0008340-001): 92%; remaining activity at 10 µM ([4]; batch_name=ASAP-0008340-001): 105%
3 | CC(C)[C@@H](Nc1ncnc2[nH]c(-c3cnn(C)c3C#N)cc12)c1ccc2c(n1)OCCO2 [ASAP-0008418] | > 50.0 | 131.128% and 106.847% | 59.813% and 94.114% | 3.4 and 3.6 | 89 µM and 60 µM | > 50 |  |  |  |  |  |  |  |  |  |  |  |  |  |  | remaining activity at 10 µM ([3]; batch_name=ASAP-0008418-001): 103%; remaining activity at 10 µM ([4]; batch_name=ASAP-0008418-001): 92%
4 | CC(C)C(Nc1ncnc2[nH]c(C(=O)NC3CCN(C)C3)cc12)c1ccc2c(c1)S(=O)(=O)CCC2 (stereo not shown) [ASAP-0011198] | > 20.0 | 87.174% | 78.327% |  |  | > 20 | -4 | 44 | -9 | 6 | 2 | -3 | -9 | -10 | 7 | > 20.0 | 148.177 | 90.706 | -7 | 17 | t_half [6]: > 231.0 min; hepatocyte CLint ([6]; hepatocytes): < 3 µL/min/1e6 cells; t_half [16]: 88.3 min; microsomal CLint ([16]; Sprague-Dawley (SD), liver microsomes): 7.85 µL/min/mg; inhibition at 10 µM [19]: 22%; logd [2]: 1.6; logd ([2]; pH 7.4): 1.6; remaining activity at 10 µM ([3]; batch_name=ASAP-0011198-002): 93%; remaining activity at 10 µM ([4]; batch_name=ASAP-0011198-002): 89%; solubility kinetic [5]: 392 µM (≈ 195 µg/mL); solubility ([5]; pH 7.4): 392 µM (≈ 195 µg/mL)
5 | Cc1nn(C)cc1-c1cc2c(NC(c3ccc4c(c3)S(=O)(=O)CCC4)C(C)C)ncnc2[nH]1 (stereo not shown) [ASAP-0011446] | > 20.0 | 92.951% | 82.728% |  |  | > 20 | 13 | -23 | -4 | 43 | 6 | -7 | -9 | 0 | -8 | > 20.0 | 134.035 | 80.92 | -16 | 15 | inhibition at 10 µM [19]: 13%; logd [2]: 3.1; logd ([2]; pH 7.4): 3.1; remaining activity at 10 µM ([3]; batch_name=ASAP-0011446-002): 105%; remaining activity at 10 µM ([4]; batch_name=ASAP-0011446-002): 95%; solubility kinetic [5]: 65 µM (≈ 30.2 µg/mL); solubility ([5]; pH 7.4): 65 µM (≈ 30.2 µg/mL)
